Results as given in PubChem BioAssay AID1963448 (Molecular Pharmacology Branch, DTP, NCI, 2024).
Several values for one entry are separate records, joined by “and”; a condition that tells them apart may be missing. Identical values can stand only once.

Test system: 616215-338-R-J1-PDC complex spheroid growth, % test/control
Test: Anticancer human tumor 616215-338-R-J1-PDC patient-derived colon adenocarcinoma cell line growth inhibition [Asc]
Details: for viability, T/C: stronger effect = lower value
In short: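 Stromal components (HUVEC and hMSC) are co-assembled with the cancer cells into multicellular spheroids. Drugs are then added singly or paired, at concentrations falling by half-log increments from a clinically achievable maximum, capped at 10 microM without known Cmax.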
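Further: spheroids exposed to agents for seven days before readout.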
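Wherever viability, T/C is given: 100% = DMSO vehicle control viability.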

**Q.** With CCN1C(C(=O)NC23CCC(C(=O)O)(CC2)CC3)C(c2cccc(Cl)c2F)C2(C(=O)Nc3cc(Cl)ccc32)C12CCCCC2 (centres undefined) + CNC(C)C(=O)NC1CN(S(=O)(=O)c2cccc(S(=O)(=O)N3CCC4CCC(C(=O)NC(c5ccccc5)c5ccccc5)N4C(=O)C(NC(=O)C(C)NC)C3)c2)CCC2CCC(C(=O)NC(c3ccccc3)c3ccccc3)N2C1=O as the compound, how does the IC50 (curve of first compound, second compound 0.00316 µM) read?
**A.** The IC50 was 87.4 nM.

**Q.** And the IC50 (curve of first compound, second compound 0.01 µM)?
**A.** The IC50 was 86.5 nM.

**Q.** And the IC50 (curve of first compound, second compound 0.0316 µM)?
**A.** Its IC50 is 175 nM.

**Q.** And the IC50 (curve of first compound, second compound 0.1 µM)?
**A.** Its IC50 is 93.1 nM.

**Q.** And the IC50 (curve of first compound, second compound 0.316 µM)?
**A.** The IC50 was 80.6 nM.

**Q.** What about the IC50 (curve of first compound, second compound 1 µM) of the same compound?
**A.** Its IC50 is 88.2 nM.

**Q.** And the viability, T/C (second compound 0.00316 µM, first compound 0.00949 µM)?
**A.** The viability, T/C was 109%.

**Q.** And the viability, T/C (second compound 0.00316 µM, first compound 0.03 µM)?
**A.** Its viability, T/C is 108%.

**Q.** And the viability, T/C (second compound 0.00316 µM, first compound 0.0949 µM)?
**A.** The viability, T/C was 41.7%.

**Q.** And the viability, T/C (second compound 0.00316 µM, first compound 0.3 µM)?
**A.** Its viability, T/C is 45.3%.

**Q.** And the viability, T/C (second compound 0.00316 µM, first compound 0.949 µM)?
**A.** The viability, T/C was 49.6%.

**Q.** What about the viability, T/C (second compound 0.00316 µM, first compound 3 µM) of the same compound?
**A.** The viability, T/C was 45.4%.

**Q.** What about the viability, T/C (second compound 0.01 µM, first compound 0.00949 µM) of the same compound?
**A.** The viability, T/C was 108%.

**Q.** What about the viability, T/C (second compound 0.01 µM, first compound 0.03 µM) of the same compound?
**A.** Its viability, T/C is 104%.

**Q.** And the viability, T/C (second compound 0.01 µM, first compound 0.0949 µM)?
**A.** Its viability, T/C is 41.6%.

**Q.** And the viability, T/C (second compound 0.01 µM, first compound 0.3 µM)?
**A.** Its viability, T/C is 44%.

**Q.** And the viability, T/C (second compound 0.01 µM, first compound 0.949 µM)?
**A.** Its viability, T/C is 54.3%.

**Q.** What about the viability, T/C (second compound 0.01 µM, first compound 3 µM) of the same compound?
**A.** The viability, T/C was 41.1%.

**Q.** And the viability, T/C (second compound 0.0316 µM, first compound 0.00949 µM)?
**A.** The viability, T/C was 99.2%.

**Q.** What about the viability, T/C (second compound 0.0316 µM, first compound 0.03 µM) of the same compound?
**A.** The viability, T/C was 101%.

**Q.** And the viability, T/C (second compound 0.0316 µM, first compound 0.0949 µM)?
**A.** The viability, T/C was 53.5%.

**Q.** What about the viability, T/C (second compound 0.0316 µM, first compound 0.3 µM) of the same compound?
**A.** The viability, T/C was 50%.

**Q.** What about the viability, T/C (second compound 0.0316 µM, first compound 0.949 µM) of the same compound?
**A.** Its viability, T/C is 48.7%.

**Q.** And the viability, T/C (second compound 0.0316 µM, first compound 3 µM)?
**A.** The viability, T/C was 42%.

**Q.** What about the viability, T/C (second compound 0.1 µM, first compound 0.00949 µM) of the same compound?
**A.** The viability, T/C was 111%.

**Q.** What about the viability, T/C (second compound 0.1 µM, first compound 0.03 µM) of the same compound?
**A.** The viability, T/C was 78.2%.

**Q.** What about the viability, T/C (second compound 0.1 µM, first compound 0.0949 µM) of the same compound?
**A.** The viability, T/C was 51.1%.

**Q.** And the viability, T/C (second compound 0.1 µM, first compound 0.3 µM)?
**A.** Its viability, T/C is 36.3%.

**Q.** And the viability, T/C (second compound 0.1 µM, first compound 0.949 µM)?
**A.** The viability, T/C was 52.8%.

**Q.** What about the viability, T/C (second compound 0.1 µM, first compound 3 µM) of the same compound?
**A.** Its viability, T/C is 41.1%.

**Q.** And the viability, T/C (second compound 0.316 µM, first compound 0.00949 µM)?
**A.** The viability, T/C was 97.5%.

**Q.** And the viability, T/C (second compound 0.316 µM, first compound 0.03 µM)?
**A.** The viability, T/C was 89.5%.

**Q.** What about the viability, T/C (second compound 0.316 µM, first compound 0.0949 µM) of the same compound?
**A.** The viability, T/C was 43.4%.

**Q.** What about the viability, T/C (second compound 0.316 µM, first compound 0.3 µM) of the same compound?
**A.** Its viability, T/C is 41.2%.

**Q.** What about the viability, T/C (second compound 0.316 µM, first compound 0.949 µM) of the same compound?
**A.** Its viability, T/C is 44.9%.

**Q.** And the viability, T/C (second compound 0.316 µM, first compound 3 µM)?
**A.** Its viability, T/C is 44.1%.

**Q.** And the viability, T/C (second compound 1 µM, first compound 0.00949 µM)?
**A.** The viability, T/C was 89.8%.

**Q.** And the viability, T/C (second compound 1 µM, first compound 0.03 µM)?
**A.** The viability, T/C was 83.4%.

**Q.** What about the viability, T/C (second compound 1 µM, first compound 0.0949 µM) of the same compound?
**A.** Its viability, T/C is 47.5%.

**Q.** And the viability, T/C (second compound 1 µM, first compound 0.3 µM)?
**A.** The viability, T/C was 43.5%.

**Q.** And the viability, T/C (second compound 1 µM, first compound 0.949 µM)?
**A.** The viability, T/C was 60.1%.

**Q.** What about the viability, T/C (second compound 1 µM, first compound 3 µM) of the same compound?
**A.** Its viability, T/C is 39.5%.

**Q.** With C=CC(=O)N1CCN(c2nc(=O)n(-c3c(C)ccnc3C(C)C)c3nc(-c4c(O)cccc4F)c(F)cc23)C(C)C1 (centres undefined) + CCN1C(C(=O)NC23CCC(C(=O)O)(CC2)CC3)C(c2cccc(Cl)c2F)C2(C(=O)Nc3cc(Cl)ccc32)C12CCCCC2 as the compound, how does the IC50 (curve of first compound, second compound 0.03 µM) read?
**A.** The IC50 was over 10000 nM.

**Q.** What about the IC50 (curve of first compound, second compound 0.0949 µM) of the same compound?
**A.** The IC50 was over 10000 nM.

**Q.** What about the IC50 (curve of first compound, second compound 0.3 µM) of the same compound?
**A.** The IC50 was over 10000 nM.

**Q.** And the IC50 (curve of first compound, second compound 0.949 µM)?
**A.** The IC50 was over 10000 nM.

**Q.** And the IC50 (curve of first compound, second compound 3 µM)?
**A.** Its IC50 is 84.2 nM.

**Q.** What about the viability, T/C (second compound 0.03 µM, first compound 0.0316 µM) of the same compound?
**A.** Its viability, T/C is 100%.

**Q.** What about the viability, T/C (second compound 0.03 µM, first compound 0.1 µM) of the same compound?
**A.** Its viability, T/C is 96.3%.

**Q.** What about the viability, T/C (second compound 0.03 µM, first compound 0.316 µM) of the same compound?
**A.** Its viability, T/C is 102%.

**Q.** And the viability, T/C (second compound 0.03 µM, first compound 1 µM)?
**A.** The viability, T/C was 102%.

**Q.** And the viability, T/C (second compound 0.03 µM, first compound 3.16 µM)?
**A.** The viability, T/C was 98.2%.

**Q.** What about the viability, T/C (second compound 0.03 µM, first compound 10 µM) of the same compound?
**A.** The viability, T/C was 101%.

**Q.** What about the viability, T/C (second compound 0.0949 µM, first compound 0.0316 µM) of the same compound?
**A.** The viability, T/C was 89.3%.

**Q.** What about the viability, T/C (second compound 0.0949 µM, first compound 0.1 µM) of the same compound?
**A.** Its viability, T/C is 93.7%.

**Q.** And the viability, T/C (second compound 0.0949 µM, first compound 0.316 µM)?
**A.** Its viability, T/C is 89.1%.

**Q.** And the viability, T/C (second compound 0.0949 µM, first compound 1 µM)?
**A.** The viability, T/C was 88.8%.

**Q.** What about the viability, T/C (second compound 0.0949 µM, first compound 3.16 µM) of the same compound?
**A.** The viability, T/C was 92.9%.

**Q.** What about the viability, T/C (second compound 0.0949 µM, first compound 10 µM) of the same compound?
**A.** The viability, T/C was 85.5%.

**Q.** And the viability, T/C (second compound 0.3 µM, first compound 0.0316 µM)?
**A.** The viability, T/C was 68.5%.

**Q.** And the viability, T/C (second compound 0.3 µM, first compound 0.1 µM)?
**A.** The viability, T/C was 64.5%.

**Q.** And the viability, T/C (second compound 0.3 µM, first compound 0.316 µM)?
**A.** The viability, T/C was 66.8%.

**Q.** And the viability, T/C (second compound 0.3 µM, first compound 1 µM)?
**A.** Its viability, T/C is 69.2%.

**Q.** And the viability, T/C (second compound 0.3 µM, first compound 3.16 µM)?
**A.** Its viability, T/C is 67.3%.

**Q.** What about the viability, T/C (second compound 0.3 µM, first compound 10 µM) of the same compound?
**A.** Its viability, T/C is 68.7%.

**Q.** What about the viability, T/C (second compound 0.949 µM, first compound 0.0316 µM) of the same compound?
**A.** The viability, T/C was 61.7%.

**Q.** What about the viability, T/C (second compound 0.949 µM, first compound 0.1 µM) of the same compound?
**A.** The viability, T/C was 65%.

**Q.** What about the viability, T/C (second compound 0.949 µM, first compound 0.316 µM) of the same compound?
**A.** The viability, T/C was 65.5%.

**Q.** What about the viability, T/C (second compound 0.949 µM, first compound 1 µM) of the same compound?
**A.** Its viability, T/C is 58.1%.

**Q.** What about the viability, T/C (second compound 0.949 µM, first compound 3.16 µM) of the same compound?
**A.** The viability, T/C was 60%.

**Q.** What about the viability, T/C (second compound 0.949 µM, first compound 10 µM) of the same compound?
**A.** The viability, T/C was 57.2%.

**Q.** What about the viability, T/C (second compound 3 µM, first compound 0.0316 µM) of the same compound?
**A.** The viability, T/C was 48.2%.

**Q.** And the viability, T/C (second compound 3 µM, first compound 0.1 µM)?
**A.** The viability, T/C was 49.8%.

**Q.** What about the viability, T/C (second compound 3 µM, first compound 0.316 µM) of the same compound?
**A.** Its viability, T/C is 52.5%.

**Q.** And the viability, T/C (second compound 3 µM, first compound 1 µM)?
**A.** The viability, T/C was 50.3%.

**Q.** What about the viability, T/C (second compound 3 µM, first compound 3.16 µM) of the same compound?
**A.** Its viability, T/C is 48.9%.

**Q.** What about the viability, T/C (second compound 3 µM, first compound 10 µM) of the same compound?
**A.** Its viability, T/C is 45.6%.

**Q.** Cn1ncnc1[C@H]1c2n[nH]c(=O)c3cc(F)cc(c23)N[C@@H]1c1ccc(F)cc1 was tested. Which viability, T/C (compound 0.000316 µM) did it give?
**A.** Its viability, T/C is 93.4% and 104% and 99.2%.

**Q.** What about the viability, T/C (compound 0.001 µM) of the same compound?
**A.** Its viability, T/C is 96.2% and 100% and 92.5%.

**Q.** What about the viability, T/C (compound 0.00316 µM) of the same compound?
**A.** The viability, T/C was 97.1% and 98.9% and 93.8%.

**Q.** And the viability, T/C (compound 0.01 µM)?
**A.** The viability, T/C was 99% and 106% and 100%.

**Q.** And the viability, T/C (compound 0.0316 µM)?
**A.** The viability, T/C was 95.7% and 100% and 102%.

**Q.** What about the viability, T/C (compound 0.1 µM) of the same compound?
**A.** Its viability, T/C is 108% (2×) and 100%.

**Q.** And the IC50 (curve of compound)?
**A.** Its IC50 is over 100 nM.
